Data from US20220288197A1, “METHODS OF TREATING A SUBJECT WITH A CDC42-SPECIFIC INHIBITOR” (Children’s Hospital Medicai Center, priority 2019, published 2022).
“Also recorded” adds a separate entry of the source. Where two headings read alike, the source gives them in different places.

Experiments:
[1] = LC-MS/MS measurement of CASIN pharmacokinetics in mouse serum; format: in vivo, C57BL/6 mice; conditions: for concentration at 3 h: female, C57BL/6, mouse, serum, intraperitoneal, 25 mg/kg
Description: CASIN solution and IP treatment. CASIN was prepared fresh before injection by dissolving the drug directly in beta-cyclodextrin solution (Sigma #H5784). IP injections were performed in the morning, every 24 hours, for 4 consecutive days during week 75 of age of the mice. Control mice were injected with equal volume of the solvent. Serum for the cytokine array was prepared from the day 7 bleeding point. […] The same stock of CASIN was used for the entire study. CASIN was provided as lyophilized powder.
Liquid Chromatography-Mass Spectrometry (LC-MS/MS) measurements of CASIN pharmacokinetics in mouse serum. A LC/MS/MS ion chromatography protocol was employed to measure serum CASIN concentration ranging 0.1-10 μM by comparing serum CASIN from i.p. injected mice at varying times with a standard curve derived by in vitro spiking of mouse serum with defined doses of CASIN. An Autosampler maximum recovery vials with caps (Waters), an UPLC-MS system (Waters Quattro Premier XE mass spectrometry with ACQUITY UPLC system), an Acquity BEH C18 UPLC column (2.1×75 mm, 1.7 μm) (Waters), and an Acquity BEH C18 UPLC guard column (Waters) were used. For LC gradient, solvent A contained acetonitrile/water (5/95) with 2 mM ammonium acetate and solvent B contained acetonitrile/water (90/10). The gradient mobile phase switched from 60% solvent A to 57% solvent A over 2 min, to 50% solvent A at 2.1 min, to 46% solvent A over 9.9 min, and then, after changing to 30% at 12.1 min, to 1% solvent A over 5.9 min, then to 60% solvent A at 18.1 min and this was held for 2 min. Column temperature was kept at 25° C. The capillary voltage was 3 KV for electrospray negative (ES-) mode, cone voltage is 45 V, collision 30 V, desolvation temperature, 350° C.; desolvation gas flow is 600 L/h; source temperature was 120° C.; and MRM transition m/z is 305.1->244.
To determine that a short-term systemic treatment of aged animals with a Cdc42-specific inhibitor would regulate lifespan, CASIN was administered i.p. every 24 hours for 4 consecutive days to 75-week old female C57BL/6 mice (FIG. 1a). CASIN levels in serum were monitored via liquid chromatography-mass spectrometry (FIGS. 2a and 2b). A 50 mg/kg single dose resulted initially in a concentration of about 10 μM in serum (data not shown).

[2] = test system: 75-week old female C57BL/6 mice; experiment: Lifespan (longevity) study of aged mice, 4-day i.p. treatment; format: in vivo
Excerpt: (§1) Mice. Mice included in the study were female C57BL/6 and were obtained from the internal divisional stock (derived from C57BL/6j mice obtained from both The Jackson Laboratory and NIA/Charles River as well as from C57BL/6JRj mice from Janvier). For the longevity study described herein, 40 mice were randomly selected at 70 weeks of age. Mice were weighed and bled before the beginning of the treatment (day 0) and at day 7 and 35. […] Mice that needed to be euthanized because they were scored as “weak and about to die” according to our approved animal license protocol for evaluating mouse health status remained part of the dataset. Allocation to control or treated group was done randomly (20 mice each experimental group).
Median lifespan, 95% confidence intervals and survival analysis were calculated by Prism GraphPad v7.0c. Of note, the median lifespan of the control group matched data obtained for C57BL/6j mice in a large set of lifespan studies of diverse inbred mouse strains. […]
To determine that a short-term systemic treatment of aged animals with a Cdc42-specific inhibitor would regulate lifespan, CASIN was administered i.p. every 24 hours for 4 consecutive days to 75-week old female C57BL/6 mice (FIG. 1a). CASIN levels in serum were monitored via liquid chromatography-mass spectrometry (FIGS. 2a and 2b). […]

[3] = test system: hepatitis B virus (HBV) core antigen; experiment: DNA vaccination response with pCI/C DNA encoding HBV core antigen; format: in vivo, C57BL/6 mice; conditions: aged mice, 13 days after immunization, OLD Solvent vs. OLD CASIN, p<0.05, FIG. 5(B)
Description: (§2) Briefly, 75 week-old C57BL/6 mice (referred to in the results as “Old”) and 12-16 week old mice (referred to in the results as “young”) were injected intraperitoneal (“IP”) every 24 hours for four days with a Cdc42-specific inhibitor (e.g., CASIN) at a dosage of interest (e.g., 25 mg/kg) or with solvent as a control group (referred to in the results as “Solvent”). On the fifth day, mice were treated with 5-fluorouracil (“5-FU”). Two methods of vaccination were investigated.
For DNA vaccination: 12 weeks after transplantation, recipient mice were immunized with pCI/C DNA encoding the hepatitis B virus (“HBV”) core antigen. FIG. 5(B) provides the results for DNA vaccination with the HBV core antigen 13 days after immunization along with an ovalbumin (“Ova”) specific immune response. The frequency of interferon gamma positive CD3^+CD8^+ T-cells was analyzed, which is an established surrogate measurement for the success of DNA vaccination protocols. […] In FIG. 5(C), splenic K^b/C93-100-dimer^+ CD8^+ T-cell frequencies were determined by flow cytometry 13 days post-immunization with the HBV core antigen. These T-cell frequencies are a direct measurement of antigen-specific T-cells.

Cdc42 = target: T1, Cdc42 (Mus musculus, UniProt P60766); experiment: Cdc42-GTPase effector domain pull-down assay in bone marrow cells after systemic in vivo treatment; design: species or system C57BL/6 mice; conditions: FIG. 1c
T1 construct: lineage depleted BM cells (10^6) were lysed in a Mg^2+ lysis/wash buffer; from tissue; host or cells: lineage-depleted bone marrow cells of C57BL/6 mice treated in vivo with CASIN
T1 sequence (P60766 whole entry, the tested form may be a part): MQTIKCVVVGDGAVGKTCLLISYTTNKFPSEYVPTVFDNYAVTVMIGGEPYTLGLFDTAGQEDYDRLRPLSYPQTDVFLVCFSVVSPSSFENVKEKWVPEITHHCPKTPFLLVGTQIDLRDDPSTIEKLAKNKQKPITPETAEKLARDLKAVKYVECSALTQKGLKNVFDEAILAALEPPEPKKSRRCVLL
Description: Cdc42-GTPase effector domain pull-down assays. Relative levels of GTP-bound Cdc42 were determined by an effector pull-down assay. Briefly, lineage depleted BM cells (10^6) were lysed in a Mg^2+ lysis/wash buffer (Upstate cell signaling solutions) containing 10% glycerol, 25 mM sodium fluoride, 1 mM sodium orthovanadate and a protease inhibitor cocktail (Roche Diagnostics). Samples were incubated with PAK-1 binding domain/agarose beads and bound (activated) as well as unbound (non-activated) Cdc42 fractions were probed by immunoblotting with an anti-Cdc42 antibody (Millipore, rabbit polyclonal). Activated protein was normalized to total protein and/or 3-actin (Sigma) and the relative amount was quantified by densitometry.
(§3) Accordingly, chronic toxicity issues from the administration of inhibitor was unlikely. […] Furthermore, CASIN treatment reversed Cdc42 activity in the aged mice cohort to an approximate level of activity seen in the young mice control cohort. Thus, CASIN treatment generally reverted Cdc42 activity levels in aged mice to the level existing in mice approximately 60 weeks younger in age.

[4] = test system: aging-associated inflammatory cytokines in serum; experiment: Cytokine array (Luminex) of serum of aged mice; format: in vivo, C57BL/6 mice
Description: CASIN solution and IP treatment. CASIN was prepared fresh before injection by dissolving the drug directly in beta-cyclodextrin solution (Sigma #H5784). IP injections were performed in the morning, every 24 hours, for 4 consecutive days during week 75 of age of the mice. Control mice were injected with equal volume of the solvent. Serum for the cytokine array was prepared from the day 7 bleeding point. Serum for mass spectrometry analysis of CASIN levels was prepared by bleeding an equal (for sex, strain, origin and age) cohort of mice 3 hours, 24 hours, and 48 hours after the end of the treatment. The same stock of CASIN was used for the entire study. CASIN was provided as lyophilized powder.
Cytokine array. Lumimex Method. Cytokine concentrations in the sample supernatants were determined by using Milliplex™ Multiplex kits (MilliporeSigma, Darmstadt, Germany) according to manufacturer's protocol. Briefly, in a 96 well black plate, 25 μL sample in duplicate was incubated with 25 μL antibody coated beads overnight at 4° C. on a plate shaker. Plates were then washed 2 times using BioTek 405 TS (BioTek, Winooski, Vt.) and 25 μL of secondary antibody was added and incubated at room temperature for 1 hour while shaking. Finally, 25 μL of streptavidin-RPE was added directly to the secondary antibody and incubated for 30 minutes at room temperature with shaking. Plates were then washed 2 more times and 150 μL of sheath fluid was added. Plates were shaken for 5 minutes and then read using luminex technology on the Milliplex Analyzer (MilliporeSigma, Darmstadt, Germany). Concentrations were calculated from standard curves using recombinant proteins and expressed in pg/ml.
(§4) Cytokine array analyses were performed to investigate the extent to which aging-associated inflammatory cytokines in serum of aged mice were affected by CASIN treatment.

[5] = Toxicity, weight and peripheral blood counts in the lifespan study; format: in vivo
Excerpt: as §1
Flow cytometry of Peripheral Blood (PB). PB cell immunostaining was performed according to standard procedures and samples were analyzed on a LSRII flow cytometer (BD Biosciences). For PB lineage analysis, the antibodies used were from eBioscience: anti-CD3ε (clone 145-2C11), anti-B220 (clone RA3-6B2), anti-Mac-1 (clone M1/70) and anti-Gr-1 (clone […]). Lineage FACS analysis data were plotted as the percentage of B220+, CD3+ and Myeloid (Gr-1+, Mac-1+ and Gr-1+Mac-1+) cells among total white blood cells. WBC (white blood cell), RBC (red blood cell), Ly (lymphocytes), NE (neutrophils), and Mo (monocyte) counts were generated by using the hemocytometer Hemavet 950, DREW SCIENTIFIC Inc, (FL 33014), USA.
as §3, §4

[6] = test system: inactivated influenza virus (H3N2); experiment: Viral vaccination response, inactivated influenza virus, antibody titer by ELISA; format: in vivo, C57BL/6 mice; conditions: aged mice, 21 days after the second vaccination, immunized 12 weeks post CASIN treatment, FIG. 5(D)
Description: as §2
For viral vaccination, animals were immunized twice at an interval of 4 weeks with inactivated influenza virus (10 μg H3N2+10 μL Al(OH)3) i.m. 12 weeks post CASIN treatment. The antibody titer was determined in serum 21 days after the second vaccination using ELISA technology. n=at least 3 per experiment.

## OCCNC1CCCc2c1[nH]c1ccc(-c3ccccc3)cc21 (stereo not shown) [CASIN]
[1]; 25 mg/kg i.p. for 4 consecutive days, 48 hours
  CASIN remaining in serum at the end of the 48 hour window: approximately no CASIN remaining in serum
[1]; 50 mg/kg single dose, initially (data not shown)
  CASIN concentration in serum: about 10 μM
[1]; 25 mg/kg i.p. for 4 consecutive days, 48 hour window of analysis, 3 hours, read-out: concentration of CASIN in serum after 3 hours
  concentration at 3 h: ~2 µM
[1]; 25 mg/kg i.p., old mice, 3 hours after injection, FIG. 2b, read-out: levels of CASIN in serum 3 hours after injection
  concentration at 3 h: ~5 µM
[2]; aged mice treated at week 75, 25 mg/kg i.p. 4 consecutive days, n=17, control 123.5 weeks
  Median survival: 136 weeks
[2]; aged mice treated for 4 consecutive days, FIG. 1d
  average and maximum lifespan: extension of both their average and maximum lifespan
[3]
  frequency of interferon gamma positive CD3+CD8+ T-cells: statistically significant increase in immune response
Cdc42; 24 hours after the last injection, aged mice
  Cdc42-GTP in aged bone marrow cells: reduction of Cdc42-GTP in aged bone marrow cells to the level seen in young
Cdc42; with no regard to the age of mouse
  decrease of Cdc42 activity: approximately half
[4]; day 7, FIG. 3
  GM-CSF concentration in serum: trend to be reduced
  IL-2 concentration in serum: trend to be reduced
[4]; day 7, FIG. 1h
  IL-9 serum concentration: increased in serum concentration
[5]; day 7 and day 35, FIG. 2e
  red blood cell count (RBC): did not change
[5]; day 7 and day 35, FIG. 2d
  white blood cell count (WBC): did not change
[5]; day 7 and day 35, FIGS. 2f-k
  frequency and count of myeloid and lymphoid cells in peripheral blood (PB): did not change
[5]; day 7 and day 35 after beginning of treatment, FIG. 2c
  weight: did not change
[5]; four days of consecutive i.p. injections, 25 mg/kg, aged mice
  acute toxicity: did not induce acute toxicity
[5]; within 4 weeks after injections
  deaths of treated mice after CASIN injections: none of the treated mice died
[6]
  antibody titer in serum: increase in antibody titer; also recorded: approximately equal to that seen in young mice
